One test concerns the target Tyk2 kinase domain (DH1) (Homo sapiens (Human), UniProt P29597). The test is described as follows: Tyk2 Radioactive Kinase Assay. Type of test: biochemical. To be noted: compound at 10 μM, ATP 10 μM; for inhibition at 10 µM: read-out: Tyk2 JH1% Inhibition @ 10 μM. The procedure, abridged:
(§1)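 Compounds were tested at a single concentration of 10 μM in a radiometric kinase format against each isolated kinase domain. Activity is reported as percent inhibition at that concentration.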

In test [1] the target is JAK2/JAK2 homdimeric complex (Homo sapiens (Human), UniProt O60674). The test is described as follows: GM-CSF Induced pSTAT5 in Human PBMC. Type of test: cell-based. As to conditions: GM-CSF 5 ng/mL for 20 minutes, pSTAT5 by MSD, read-out: PBMC_GMCSF_pSTAT5 IC50.
Chain of JAK2/JAK2 homdimeric complex (O60674 whole entry, the tested form may be a part): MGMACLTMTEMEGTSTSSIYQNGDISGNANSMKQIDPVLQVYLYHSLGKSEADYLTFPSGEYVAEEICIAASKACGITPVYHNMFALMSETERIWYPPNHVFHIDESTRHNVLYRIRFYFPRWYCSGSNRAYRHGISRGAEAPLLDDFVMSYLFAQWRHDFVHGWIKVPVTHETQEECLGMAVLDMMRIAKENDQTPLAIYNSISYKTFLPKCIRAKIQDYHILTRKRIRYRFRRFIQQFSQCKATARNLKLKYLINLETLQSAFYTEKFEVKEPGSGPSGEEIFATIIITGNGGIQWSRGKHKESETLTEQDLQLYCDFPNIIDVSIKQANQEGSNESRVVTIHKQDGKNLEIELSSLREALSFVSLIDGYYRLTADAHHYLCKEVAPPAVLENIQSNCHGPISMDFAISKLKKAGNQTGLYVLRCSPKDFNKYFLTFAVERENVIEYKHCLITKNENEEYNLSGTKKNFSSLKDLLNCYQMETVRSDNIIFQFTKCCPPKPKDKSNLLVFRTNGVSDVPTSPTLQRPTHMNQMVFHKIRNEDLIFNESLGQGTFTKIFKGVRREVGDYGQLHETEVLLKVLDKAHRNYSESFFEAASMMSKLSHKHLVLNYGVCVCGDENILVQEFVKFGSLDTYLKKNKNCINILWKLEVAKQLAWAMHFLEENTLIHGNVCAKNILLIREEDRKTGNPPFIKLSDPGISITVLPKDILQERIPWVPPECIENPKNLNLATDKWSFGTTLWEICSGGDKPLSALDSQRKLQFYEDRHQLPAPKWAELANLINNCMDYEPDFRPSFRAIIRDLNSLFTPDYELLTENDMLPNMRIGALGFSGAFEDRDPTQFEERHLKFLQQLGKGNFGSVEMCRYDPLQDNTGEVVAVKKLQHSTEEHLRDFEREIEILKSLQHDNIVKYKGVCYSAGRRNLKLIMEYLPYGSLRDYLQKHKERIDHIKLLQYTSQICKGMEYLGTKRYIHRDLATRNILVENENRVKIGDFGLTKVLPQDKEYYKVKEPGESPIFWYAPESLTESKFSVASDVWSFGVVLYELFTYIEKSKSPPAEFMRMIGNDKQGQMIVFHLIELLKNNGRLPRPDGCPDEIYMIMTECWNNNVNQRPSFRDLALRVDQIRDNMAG
Chain of JAK2/JAK2 homdimeric complex (P32927 17-897 partner): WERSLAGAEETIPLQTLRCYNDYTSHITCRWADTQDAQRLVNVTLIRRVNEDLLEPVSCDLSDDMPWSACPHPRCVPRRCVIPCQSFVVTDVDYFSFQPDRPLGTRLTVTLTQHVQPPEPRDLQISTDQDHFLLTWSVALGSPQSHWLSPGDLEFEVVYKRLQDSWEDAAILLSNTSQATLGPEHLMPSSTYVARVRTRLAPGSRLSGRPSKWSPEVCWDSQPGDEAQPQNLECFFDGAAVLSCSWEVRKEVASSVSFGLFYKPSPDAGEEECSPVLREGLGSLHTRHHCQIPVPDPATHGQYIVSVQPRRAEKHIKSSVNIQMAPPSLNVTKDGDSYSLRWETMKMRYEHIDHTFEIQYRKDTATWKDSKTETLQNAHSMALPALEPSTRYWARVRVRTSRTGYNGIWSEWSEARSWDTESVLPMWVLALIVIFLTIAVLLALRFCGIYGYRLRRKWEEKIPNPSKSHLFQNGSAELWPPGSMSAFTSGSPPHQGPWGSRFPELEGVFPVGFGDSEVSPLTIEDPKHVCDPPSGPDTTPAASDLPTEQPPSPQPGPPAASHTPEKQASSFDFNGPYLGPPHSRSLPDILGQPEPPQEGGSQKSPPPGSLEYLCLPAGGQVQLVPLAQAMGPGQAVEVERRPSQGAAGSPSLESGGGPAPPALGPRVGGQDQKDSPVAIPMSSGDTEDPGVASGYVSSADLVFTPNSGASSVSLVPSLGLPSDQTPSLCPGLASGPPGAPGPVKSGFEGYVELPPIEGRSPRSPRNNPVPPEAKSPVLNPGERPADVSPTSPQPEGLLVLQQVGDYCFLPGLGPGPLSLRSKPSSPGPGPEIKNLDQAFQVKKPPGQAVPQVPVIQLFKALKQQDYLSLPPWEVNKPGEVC
The target in the next test is JAK2 kinase domain (JH1) (Homo sapiens (Human), UniProt O60674). Description: JAK2 Radioactive Kinase Assay. As to conditions: compound at 10 μM, ATP 10 μM; for inhibition at 10 µM: read-out: JAK2 JH1% Inhibition @ 10 μM. Type of test: biochemical. In a few lines:
as §1

Test [2] concerns the target Tyk2/JAK2 (heterodimeric complex) (Homo sapiens (Human), UniProt P29597). Description: IL-12 Induced pSTAT4 in Human PBMC. Type of test: cell-based. To be noted: 1.7 ng/mL IL-12. An excerpt:
The IL-12 Induced pSTAT4 assay evaluates the inhibition of IL-12 induced STAT4 phophorylation mediated by Tyk2/JAK2 (heterodimeric complex).

In test [3] the target is human TYK2 (JH2domain-pseudokinase) (Homo sapiens (Human), UniProt P29597). Description: TYK2 JH2 Domain Binding Assay (KINOMEscan). The procedure, abridged:
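Competition binding of a DNA-tagged fusion of human TYK2 JH2 pseudokinase (G556–D888) with NFkB DNA-binding domain, from HEK293 extracts (<0.1 nM final), against immobilised ligand beads; 1 h shaking at room temperature, 0.9% DMSO. Bound kinase quantified by qPCR.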

Chain of Tyk2/JAK2 (heterodimeric complex) (P29597 whole entry, other chains not shown): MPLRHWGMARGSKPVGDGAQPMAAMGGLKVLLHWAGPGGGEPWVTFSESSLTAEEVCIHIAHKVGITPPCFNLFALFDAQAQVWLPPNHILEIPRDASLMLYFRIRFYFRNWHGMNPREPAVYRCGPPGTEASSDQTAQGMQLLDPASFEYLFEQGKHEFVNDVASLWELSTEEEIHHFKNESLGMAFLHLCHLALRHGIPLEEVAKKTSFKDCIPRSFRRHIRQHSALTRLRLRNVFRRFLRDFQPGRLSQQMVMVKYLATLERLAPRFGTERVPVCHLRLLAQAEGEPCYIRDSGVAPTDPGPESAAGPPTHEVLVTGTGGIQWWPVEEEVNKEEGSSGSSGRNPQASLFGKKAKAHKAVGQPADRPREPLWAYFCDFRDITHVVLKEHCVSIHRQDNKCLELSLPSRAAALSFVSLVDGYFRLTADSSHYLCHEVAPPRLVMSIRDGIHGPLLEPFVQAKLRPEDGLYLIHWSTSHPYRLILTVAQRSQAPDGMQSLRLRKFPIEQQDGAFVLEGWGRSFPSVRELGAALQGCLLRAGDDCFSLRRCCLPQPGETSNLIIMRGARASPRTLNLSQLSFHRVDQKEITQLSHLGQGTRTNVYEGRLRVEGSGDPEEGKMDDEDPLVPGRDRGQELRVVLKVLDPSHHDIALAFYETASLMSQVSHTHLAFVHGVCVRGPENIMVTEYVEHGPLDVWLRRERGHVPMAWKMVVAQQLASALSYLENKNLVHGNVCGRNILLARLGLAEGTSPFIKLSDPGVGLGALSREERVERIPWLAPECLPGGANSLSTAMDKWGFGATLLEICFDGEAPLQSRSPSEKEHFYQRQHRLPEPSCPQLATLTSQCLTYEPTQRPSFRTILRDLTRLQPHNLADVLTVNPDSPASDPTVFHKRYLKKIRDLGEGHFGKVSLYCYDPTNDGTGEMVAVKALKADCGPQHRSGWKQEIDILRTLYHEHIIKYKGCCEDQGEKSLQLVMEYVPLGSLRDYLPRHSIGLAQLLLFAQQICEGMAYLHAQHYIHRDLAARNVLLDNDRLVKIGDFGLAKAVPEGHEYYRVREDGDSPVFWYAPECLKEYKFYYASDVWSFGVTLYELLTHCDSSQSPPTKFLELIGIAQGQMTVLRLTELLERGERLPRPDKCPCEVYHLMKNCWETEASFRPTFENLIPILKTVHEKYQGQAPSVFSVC
Chain of Tyk2 kinase domain (DH1) (P29597 897-1176): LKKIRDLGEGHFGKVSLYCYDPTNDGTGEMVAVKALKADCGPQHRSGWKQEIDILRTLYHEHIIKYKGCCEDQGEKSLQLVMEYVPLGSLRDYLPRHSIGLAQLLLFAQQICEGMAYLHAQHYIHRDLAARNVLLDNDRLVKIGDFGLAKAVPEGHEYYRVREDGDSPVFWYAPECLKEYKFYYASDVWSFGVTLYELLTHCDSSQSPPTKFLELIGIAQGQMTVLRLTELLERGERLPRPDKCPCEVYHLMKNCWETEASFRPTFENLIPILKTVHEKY
Chain of JAK2 kinase domain (JH1) (O60674 849-1124): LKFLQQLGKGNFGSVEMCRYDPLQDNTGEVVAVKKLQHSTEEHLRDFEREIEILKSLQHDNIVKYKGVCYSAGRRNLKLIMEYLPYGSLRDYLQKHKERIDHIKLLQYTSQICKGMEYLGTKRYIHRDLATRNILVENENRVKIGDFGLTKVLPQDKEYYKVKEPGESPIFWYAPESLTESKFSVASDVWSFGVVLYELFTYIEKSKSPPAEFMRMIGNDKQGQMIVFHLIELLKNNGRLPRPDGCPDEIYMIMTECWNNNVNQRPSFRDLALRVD
Chain of human TYK2 (JH2domain-pseudokinase) (P29597 556-888): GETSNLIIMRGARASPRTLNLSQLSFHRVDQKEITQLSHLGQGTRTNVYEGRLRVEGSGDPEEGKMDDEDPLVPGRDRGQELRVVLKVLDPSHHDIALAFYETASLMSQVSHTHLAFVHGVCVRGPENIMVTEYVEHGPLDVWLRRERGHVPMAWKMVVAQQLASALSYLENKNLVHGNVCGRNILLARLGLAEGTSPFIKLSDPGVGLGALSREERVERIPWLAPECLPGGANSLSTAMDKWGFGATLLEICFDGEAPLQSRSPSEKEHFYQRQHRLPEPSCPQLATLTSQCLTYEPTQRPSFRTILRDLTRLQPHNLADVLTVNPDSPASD

The term inhibition denotes the drop in the measured response relative to a control, in per cent. By IC50 is commonly meant the concentration needed to halve the response being measured. In general, Kd refers to the free concentration of one partner at which half of the binding sites on the other are occupied at equilibrium, for simple one-to-one binding. In the case of `CNc1cc(Nc2cccn(C3CC4(COC4)C3)c2=O)nc2c(C(=O)N[C@@H]3C[C@@H]3F)cnn12` [I-551, N-((1R,2S)-2-fluorocyclopropyl)-7-(methylamino)-5-((2-oxo-1-(2-oxaspiro[3.3]heptan-6-yl)-1,2-dihydropyridin-3-yl)amino)pyrazolo[1,5-a]pyrimidine-3-carboxamide], the inhibition at 10 µM on Tyk2 kinase domain (DH1) and at JAK2 kinase domain (JH1) was less than 50% in each case. Further, the figures for the IC50 in test [1] and in test [2] were more than 2500 nM and less than 100 nM, respectively. This molecule gave a Kd in test [3] of less than 0.2 nM.
`CNc1cc(Nc2cc(F)cn([C@H]3CCCOC3)c2=O)nc2c(C(=O)N[C@H]3C[C@H]3F)cnn12` [I-559]: the inhibition at 10 µM at Tyk2 kinase domain (DH1) and at JAK2 kinase domain (JH1) was less than 50% in each case. Also, the half-inhibitory concentration (IC50) in test [1] was more than 50000 nM; in test [2], less than 100 nM. In test [3], this molecule gave a dissociation constant (Kd) of less than 0.2 nM.
In the case of `CNc1cc(Nc2cccn([C@H]3CC[C@H](OC)CC3)c2=O)nc2c(C(=O)N[C@@H]3CC[C@@H]3O)cnn12` [I-560], the inhibition at 10 µM at Tyk2 kinase domain (DH1) and at JAK2 kinase domain (JH1) was less than 50% throughout. For the same molecule, the IC50 in test [1] is more than 2500 nM; in test [2], less than 100 nM. The molecule also registered a dissociation constant Kd in test [3] of less than 0.2 nM.
Consider `CNc1cc(Nc2cccc([C@@H]3CCCOC3)n2)nc2c(C(=O)N[C@H]3C[C@H]3F)cnn12` [I-562], for which the results for the inhibition at 10 µM on Tyk2 kinase domain (DH1) and on JAK2 kinase domain (JH1) were less than 50% and 50 to 70%, respectively. In addition, the concentration for half-maximal inhibition (IC50) in test [1] is more than 50000 nM; in test [2], less than 100 nM. This molecule yielded an equilibrium dissociation constant (Kd) in test [3] of less than 0.2 nM.
On the same counts, the results for `CNc1cc(Nc2cccc([C@H]3CCCOC3)n2)nc2c(C(=O)N[C@H]3C[C@H]3F)cnn12` [I-563] are less than 50%, less than 50%, more than 50000 nM, less than 100 nM and less than 0.2 nM.
In the case of `CNc1cc(Nc2cccn(C3CCN(CCF)CC3)c2=O)nc2c(C(=O)N[C@H]3C[C@H]3F)cnn12` [I-570], the inhibition at 10 µM at Tyk2 kinase domain (DH1) and on JAK2 kinase domain (JH1) was less than 50% throughout. Moreover, the IC50 in test [1] is more than 50000 nM; in test [2], less than 100 nM. This molecule showed a Kd in test [3] of less than 0.2 nM.
`CNc1cc(-c2cn(C(C)C)c3ncccc23)nc2c(C(=O)N[C@@H]3CC[C@@H]3O)cnn12` [I-578]: the inhibition at 10 µM on Tyk2 kinase domain (DH1) and on JAK2 kinase domain (JH1) was less than 50% throughout. Further, the concentration for half-maximal inhibition (IC50) in test [1] was more than 50000 nM; in test [2], less than 100 nM. This molecule also had a Kd in test [3] of less than 0.2 nM.
As for `CNc1cc(-c2cn(CCN3CCCCC3)c3ncccc23)nc2c(C(=O)N[C@H]3C[C@H]3F)cnn12` [I-585], the inhibition at 10 µM on Tyk2 kinase domain (DH1) and on JAK2 kinase domain (JH1) was less than 50% in each case. The IC50 in test [1] is more than 12500 nM; in test [2], less than 100 nM. The dissociation constant (Kd) in test [3] is less than 0.2 nM.
For the molecule `CNc1cc(-c2cn(C(C)C)c3ncccc23)nc2c(C(=O)N[C@H]3CC[C@@H]3O)cnn12` [I-586, N-((1R,2R)-2-hydroycyclobutyl)-5-(1-isopropyl-1H-pyrrolo[2,3-b]pyridin-3-yl)-7-(methylamino)pyrazolo[1,5-a]pyrimidine-3-carboxamide], the inhibition at 10 µM at Tyk2 kinase domain (DH1) and on JAK2 kinase domain (JH1) was less than 50% each time. The IC50 in test [1] is more than 50000 nM; in test [2], less than 100 nM. Moreover, in test [3], the dissociation constant (Kd) was less than 0.2 nM.
In the case of `CNc1cc(Nc2cccc(N3CCOCC3)n2)nc2c(C(=O)N[C@H]3C[C@H]3F)cnn12` [I-590], the inhibition at 10 µM on Tyk2 kinase domain (DH1) was less than 50%; on JAK2 kinase domain (JH1), 50 to 70%. Also, the IC50 in test [1] was more than 12500 nM; in test [2], less than 100 nM. Further, in test [3], the Kd is less than 0.2 nM.
With `CNc1cc(Nc2cccc3ocnc23)nc2c(C(=O)NC3CC3)cnn12` [I-591], the inhibition at 10 µM on Tyk2 kinase domain (DH1) and at JAK2 kinase domain (JH1) was less than 50% each time. For the same molecule, the IC50 is more than 12500 nM in test [1] and less than 100 nM in test [2]. In test [3], this molecule displayed a Kd of less than 0.2 nM.
For `CNc1cc(Nc2cccc3ocnc23)nc2c(C(=O)N[C@H]3C[C@H]3F)cnn12` [I-592], the inhibition at 10 µM at Tyk2 kinase domain (DH1) and at JAK2 kinase domain (JH1) was less than 50% in each case. The IC50 is more than 12500 nM in test [1] and less than 100 nM in test [2]. For the same molecule, in test [3], the Kd was less than 0.2 nM.
Take `CNc1cc(Nc2cccc([C@@H]3CCCOC3)n2)nc2c(C(=O)N[C@H]3CC[C@@H]3O)cnn12` [I-603]: the inhibition at 10 µM at Tyk2 kinase domain (DH1) and on JAK2 kinase domain (JH1) was 50 to 70% each time. Also, the half-maximal inhibitory concentration (IC50) is more than 2500 nM in test [1] and less than 100 nM in test [2]. This molecule came in with a dissociation constant (Kd) in test [3] of less than 0.2 nM.
As to `CNc1cc(Nc2cccn(-c3cn(C)nc3F)c2=O)nc2c(C(=O)NC3CC3)cnn12` [I-606], the inhibition at 10 µM at Tyk2 kinase domain (DH1) and at JAK2 kinase domain (JH1) was less than 50% each time. Further, the half-inhibitory concentration (IC50) in test [1] was more than 12500 nM; in test [2], 100 to 500 nM. In test [3], this molecule registered a Kd of less than 0.2 nM.
For the molecule `CNc1cc(Nc2cccn(-c3cn(C)nc3F)c2=O)nc2c(C(=O)N[C@H]3C[C@H]3F)cnn12` [I-607], the inhibition at 10 µM on Tyk2 kinase domain (DH1) and on JAK2 kinase domain (JH1) was less than 50% in each case. Further, the half-maximal inhibitory concentration (IC50) is more than 50000 nM in test [1] and less than 100 nM in test [2]. The Kd in test [3] was less than 0.2 nM.
Consider `CNc1cc(-c2cn(C(C)C)c3ncccc23)nc2c(C(=O)N[C@H]3C[C@H](O)C3)cnn12` [I-630, N-((1r, 3r)-3-hydroxycyclobutyl)-5-(1-isopropyl-1H-pyrrolo[2,3-b]pyridin-3-yl)-7-(methylamino)pyrazolo[1,5-a]pyrimidine-3-carboxamide], for which the inhibition at 10 µM on Tyk2 kinase domain (DH1) and on JAK2 kinase domain (JH1) was less than 50% each time. Besides, the half-maximal inhibitory concentration (IC50) was more than 2500 nM in test [1] and less than 100 nM in test [2]. In addition, the Kd in test [3] is less than 0.2 nM.
Take `CNc1cc(Nc2cccn([C@H]3CC[C@H](OC)CC3)c2=O)nc2c(C(=O)N[C@@H]3CC[C@H]3O)cnn12` [I-635]: the inhibition at 10 µM on Tyk2 kinase domain (DH1) and on JAK2 kinase domain (JH1) was less than 50% throughout. Moreover, the IC50 was more than 50000 nM in test [1] and less than 100 nM in test [2]. In test [3], this molecule had a dissociation constant Kd of less than 0.2 nM.
Take `CNc1cc(-c2cn(C(C)C)c3ncccc23)nc2c(C(=O)N[C@H]3CC[C@H]3O)cnn12` [I-637]: the inhibition at 10 µM on Tyk2 kinase domain (DH1) and at JAK2 kinase domain (JH1) was less than 50% throughout. Moreover, the IC50 in test [1] was more than 12500 nM; in test [2], less than 100 nM. The molecule also showed a Kd in test [3] of less than 0.2 nM.
In the case of `CNc1cc(-c2cn(C(C)C)c3ncccc23)nc2c(C(=O)N[C@H]3CC[C@@H]3O)cnn12` [I-639], the “Tyk2 JH1% Inhibition @ 10 μM” value at Tyk2 kinase domain (DH1) is “A (percent inhibition at 10 μM lower than 50)”. Further, the half-inhibitory concentration (IC50) in test [1] is more than 12500 nM; in test [2], less than 100 nM. The “JAK2 JH1% Inhibition @ 10 μM” value on JAK2 kinase domain (JH1) is reported as “A (percent inhibition at 10 μM lower than 50)”. Besides, the Kd in test [3] was less than 0.2 nM.
Turning to `CNc1cc(-c2cn(C(C)C)c3ncccc23)nc2c(C(=O)N[C@@H]3CC[C@H]3O)cnn12` [I-640], the inhibition at 10 µM at Tyk2 kinase domain (DH1) and at JAK2 kinase domain (JH1) was less than 50% throughout. Besides, the IC50 in test [1] is more than 12500 nM; in test [2] it was less than 100 nM. Further, in test [3], the Kd was less than 0.2 nM.
On to `CNc1cc(Nc2cccc3ocnc23)nc2c(C(=O)N[C@@H]3CC[C@@H]3O)cnn12` [I-661], for which the inhibition at 10 µM at Tyk2 kinase domain (DH1) and on JAK2 kinase domain (JH1) was less than 50% throughout. Also, the IC50 in test [1] was more than 12500 nM; in test [2], less than 100 nM. In addition, the Kd in test [3] was less than 0.2 nM.
For the molecule `CNc1cc(Nc2cccc([C@@H]3CCCOC3)n2)nc2c(C(=O)N[C@@H]3CC[C@H]3O)cnn12` [I-665], the inhibition at 10 µM is less than 50% on Tyk2 kinase domain (DH1) and 50 to 70% on JAK2 kinase domain (JH1). In addition, the IC50 in test [1] is more than 2500 nM; in test [2], less than 100 nM. In addition, the Kd in test [3] was less than 0.2 nM.
Taken in the same sequence, the figures for `CNc1cc(Nc2cccc([C@H]3CCCOC3)n2)nc2c(C(=O)N[C@@H]3CC[C@H]3O)cnn12` [I-667] were less than 50%, less than 50%, more than 12500 nM, less than 100 nM and less than 0.2 nM.
On the same counts, the results for `CNc1cc(Nc2cccn([C@H]3CC[C@](C)(OC)CC3)c2=O)nc2c(C(=O)N[C@@H]3CC[C@@H]3O)cnn12` [I-670, N-(2-hydroxycyclobutyl)-5-((1-((1R,4S)-4-methoxy-4-methylcyclohexyl)-2-oxo-1,2-dihydropyridin-3-yl)amino)-7-(methylamino)pyrazolo[1,5-a]pyrimidine-3-carboxamide] are less than 50%, less than 50%, more than 50000 nM, less than 100 nM and less than 0.2 nM.
Consider `CNc1cc(Nc2cccn(-c3ncc(OC)cc3F)c2=O)nc2c(C(=O)N[C@H]3C[C@H]3F)cnn12` [I-673], for which the inhibition at 10 µM at Tyk2 kinase domain (DH1) and at JAK2 kinase domain (JH1) was less than 50% each time. The IC50 in test [1] was more than 50000 nM; in test [2] it was less than 100 nM. Further, the equilibrium dissociation constant (Kd) in test [3] is less than 0.2 nM.
`CNc1cc(Nc2cccn(-c3ncc(C)s3)c2=O)nc2c(C(=O)N[C@@H]3CC[C@@H]3O)cnn12` [I-677]: the inhibition at 10 µM on Tyk2 kinase domain (DH1) and on JAK2 kinase domain (JH1) was less than 50% each time. Besides, the IC50 in test [1] is more than 2500 nM; in test [2], less than 100 nM. Further, the equilibrium dissociation constant (Kd) in test [3] is less than 0.2 nM.

The values above are taken from patent publication US10508120B2, “TYK2 inhibitors and uses thereof” (Nimbus Lakshmi, Inc., priority 2017, dated 2019).
